Reference: ChEMBL document CHEMBL5154929, “Optimization of the Natural Product Calothrixin A to Discover Novel Dual Topoisomerase I and II Inhibitors with Improved Anticancer Activity” (J Med Chem, 2022)
The source made the active and inactive calls. The calls are words filed in the database; no cut-off is given here.

Assays:
[1] = system: Calf thymus DNA; experiment: Binding affinity to calf thymus DNA assessed as intercalation by measuring hypochromic shift at 389 nm by […]; format: nucleic-acid assay; details: Bos taurus
[2] = system: A-375; experiment: Induction of cell cycle arrest in human A-375 cells assessed as accumulation of cells at G1 phase at 20 nM incubated for 24 hrs by PI based flow cytometric analysis (RVB = 52.94%); format: functional
[3] = Cmax in Kunming mouse plasma at 10 mg/kg, iv administered as single dose measured after 5 to 360 mins by HPLC analysis; format: ADME, organism-based; set-up: dose 10 mg/kg, time upper 360 min, time lower 5 min, route iv
[4] = Aqueous solubility of the compound in saline equilibrating for 24 hrs by HPLC analysis; format: physicochemical
[5] = system: A-375; experiment: Induction of cell cycle arrest in human A-375 cells assessed as accumulation of cells at S phase at 40 nM incubated for 24 hrs by PI based flow cytometric analysis (RVB = 26.73%); format: functional
[6] = Cytotoxicity against human HEK293T cells measured after 72 hrs by MTT assay; format: toxicity, cell-based, HEK-293T
[7] = In vivo acute toxicity in Balb/C mouse assessed as pathological damage in liver at 50 mg/kg, iv administered once per 2 days for 7 days measured 24 hrs after last dose by H and E staining method; format: organism-based; details: 168 h, time 7 day
[8] = system: A-375; experiment: Cytotoxicity against human A-375 cells expressing high level of topoisomerase I/II measured after 72 hrs by MTT assay; format: functional, cell-based; details: A-375, 72 h
[9] = system: A-375; experiment: In vivo induction of apoptosis in human A-375 cells xenografted in BALB/c nude mouse assessed as […] treated after 7 days of tumor implantation on right flank subcutaneously at 10 to 20 mg/kg, iv administered once per 2 days for 14 days by measuring TUNEL positive cells under a light microscope; format: functional, organism-based; details: dose 10-20 mg/kg, time 14.0 day
[10] = system: A-375; experiment: Induction of cell cycle arrest in human A-375 cells assessed as accumulation of cells at G1 phase at 80 nM incubated for 24 hrs by PI based flow cytometric analysis (RVB = 52.94%); format: functional
[11] = system: Calf thymus DNA; experiment: Binding affinity to calf thymus DNA assessed as intercalation by measuring hypochromic shift at 292 nm by […]; format: nucleic-acid assay; details: Bos taurus
[12] = Volume of distribution in Kunming mouse plasma at 10 mg/kg, iv administered as single dose measured after 5 to 360 mins by HPLC analysis; format: ADME, organism-based; details: time 5-360 min
[13] = system: A-375; experiment: In vivo induction of apoptosis in human A-375 cells xenografted in BALB/c nude mouse treated after 7 days of tumor implantation on right flank subcutaneously at 10 to 20 mg/kg, iv administered once per 2 days for 14 days by measuring TUNEL positive cells under a light microscope; format: functional, organism-based; details: dose 10-20 mg/kg, time 14.0 day
[14] = system: A-375; experiment: Induction of apoptosis in human A-375 cells assessed as increase in expression level of C-caspase-8 measured after 24 hrs by Western blotting analysis; format: functional, cell-based; details: dose 40-120 nM, DDE = dose-dependent effect
[15] = Microsomal stability in mouse liver microsomes assessed as clearance measured at 2 ug/ml upto 60 mins in presence of NADPH generating system and UGT incubation system by phase II metabolic stability kit method; format: ADME, Microsome; details: dose 2 µg/ml, read-out: CLH
[16] = molecular target: T1, DNA topoisomerase 1 (Homo sapiens) (UniProt P11387); experiment: Inhibition of DNA topoisomerase I (unknown origin) relaxation activity at 100 uM incubated for 30 mins by chemiDoc system
T1 sequence (whole entry): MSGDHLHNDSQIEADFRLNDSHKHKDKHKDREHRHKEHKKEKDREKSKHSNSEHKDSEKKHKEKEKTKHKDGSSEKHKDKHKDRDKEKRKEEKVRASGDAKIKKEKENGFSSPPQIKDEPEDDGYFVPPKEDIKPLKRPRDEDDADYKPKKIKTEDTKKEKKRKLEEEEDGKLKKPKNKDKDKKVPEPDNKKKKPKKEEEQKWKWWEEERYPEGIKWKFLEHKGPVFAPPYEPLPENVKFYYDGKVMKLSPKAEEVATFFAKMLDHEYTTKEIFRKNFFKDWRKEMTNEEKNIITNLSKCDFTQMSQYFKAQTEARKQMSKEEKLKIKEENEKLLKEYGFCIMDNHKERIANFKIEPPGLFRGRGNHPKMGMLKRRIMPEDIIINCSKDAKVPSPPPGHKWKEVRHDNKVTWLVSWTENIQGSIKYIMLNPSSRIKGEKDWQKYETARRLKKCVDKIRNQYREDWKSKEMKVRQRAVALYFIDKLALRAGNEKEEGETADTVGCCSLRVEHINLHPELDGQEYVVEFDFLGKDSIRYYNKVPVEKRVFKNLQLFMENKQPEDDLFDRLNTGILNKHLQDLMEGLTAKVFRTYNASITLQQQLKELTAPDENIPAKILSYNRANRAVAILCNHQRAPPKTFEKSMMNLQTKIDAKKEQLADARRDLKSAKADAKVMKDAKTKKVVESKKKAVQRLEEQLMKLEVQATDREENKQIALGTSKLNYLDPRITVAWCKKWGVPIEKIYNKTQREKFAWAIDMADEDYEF

[17] = system: A-375; experiment: Induction of cell cycle arrest in human A-375 cells assessed as accumulation of cells at G2 phase at 80 nM incubated for 24 hrs by PI based flow cytometric analysis (RVB = 20.34%); format: functional
[18] = system: HCT-116; experiment: Antiproliferative activity against doxorubicin sensitive human HCT-116 cells measured after 72 hrs by MTT assay; format: functional, cell-based; details: HCT-116, 72 h
[19] = In vivo acute toxicity in Balb/C mouse assessed as effect on body weight at 50 mg/kg, iv administered once per 2 days for 7 days measured every other day; format: organism-based; details: 168 h, time 7 day
[20] = Metabolic stability in mouse plasma upto 5 hrs by HPLC-UV analysis; format: ADME, cell-free
[21] = system: A-375; experiment: Inhibition of colony formation in human A-375 cells at 20 to 40 nM incubated for 48 hrs by crystal violet staining method; format: functional, cell-based; details: dose 20-40 nM
[22] = system: A-375; experiment: Induction of apoptosis in human A-375 cells at 80 nM measured after 8 hrs by Annexin V-FITC and DAPI staining based flow cytometric analysis; format: functional
[23] = system: SH-SY5Y; experiment: Cytotoxicity against human SH-SY5Y cells expressing low level of topoisomerase I/II measured after 72 hrs by MTT assay; format: functional, cell-based
[24] = system: A-375; experiment: Induction of cell cycle arrest in human A-375 cells assessed as accumulation of cells at G2 phase at 40 nM incubated for 24 hrs by PI based flow cytometric analysis (RVB = 20.34%); format: functional
[25] = system: A-375; experiment: Induction of apoptosis in human A-375 cells assessed as […] at 20 to 80 nM measured after 24 hrs by Annexin V-FITC and DAPI staining based flow cytometric analysis; format: functional; details: dose 20-80 nM
[26] = system: A-375; experiment: Induction of cell cycle arrest in human A-375 cells assessed as accumulation of cells at S phase at 20 nM incubated for 24 hrs by PI based flow cytometric analysis (RVB = 26.73%); format: functional
[27] = Cytotoxicity against human L02 cells measured after 72 hrs by MTT assay; format: toxicity, cell-based
[28] = system: Calf thymus DNA; experiment: Binding affinity to calf thymus DNA assessed as intercalation by measuring hypochromic shift at 432 nm by […]; format: nucleic-acid assay; details: Bos taurus

## O=C1c2c[n+]([O-])c3ccccc3c2C(=O)c2c1c1ccccc1n2Cc1cn([C@@H]2C[C@H](O)[C@@H](CO)O2)nn1
[1]
  Activity: 29%
[2]
  Activity: 32.45%
[3]
  Cmax: 27000 ng/mL
[4]
  solubility at 24 h: > 5000 µg/mL
[5]
  Activity: 43.2%
[6]
  IC50 at 72 h: 820 nM
[7]
  Activity: Non-Toxic
[8]
  IC50: 20 nM
[9]
  Activity: Active
[10]
  Activity: 34.99%
[11]
  Activity: 44%
[12]
  Vd: 0.234 L/kg
[13]
  Activity: Active
[14]
  Activity: Dde
[15]
  microsomal CLint at 2 ug/ml: 35 µL/min/mg
[16]
  inhibition: Active
[17]
  Activity: 6.88%
[18]
  IC50: 50 nM
[19]
  Activity: Non-Toxic
[20]
  Stability: Stable
[21]
  inhibition: Active
[22]
  Activity: 7.14%
[23]
  IC50: 150 nM
[24]
  Activity: 27.87%
[25]
  Activity: 38.36%
[26]
  Activity: 38.36%
[27]
  IC50 at 72 h: 630 nM
[28]
  Activity: 32%
